Publication PMC4664883, “Selective targeting of nuclear receptor FXR by avermectin analogues with therapeutic effects on nonalcoholic fatty liver disease” (Scientific Reports, 2015)

Assays:
FXR A291W mutation = assay: Reporter assay with mutated FXR; type: cell-based; settings: 1 μM, Fig. 8e
FXR N283L mutation = assay: Reporter assay with mutated FXR; type: cell-based; settings: 1 μM, Fig. 8e
Text: R331M mutation was supposed to strengthen the hydrophobic interactions by displacing the corresponding residue of polar arginine to a hydrophobic methionine (Fig. 8b). Accordingly, this mutation increased the ability to be activated by avermectin ligands (Fig. 8e). For H447F mutation, the corresponding residue of histidine with a side chain of imidazole group was replaced by the nonpolar phenylalanine with a side chain of benzene ring (Fig. 8c). […] N283L mutation disrupts a key hydrogen bond between FXR and avermectin compounds (Fig. 8d).

medaka eleutheroembryo = settings: cited from earlier work
mice = system: mice; design: method as in PMID 21632533; settings: cited from earlier work
KK-Ay mice = assay: High-fat diet fed KK-Ay mice treated 14 days (liver histology, metabolic parameters, GTT, ITT); type: in vivo; settings: KK-Ay mice, high-fat diet, i.p. once daily 14 days; avermectin analogues 1.3 mg/kg, GW4064 30 mg/kg
Experimental: To further confirm the lipid accumulation, we performed oil red O staining of the frozen liver sections (Fig. 2c).
10 weeks age KK-Ay mice and C57BL/6J, homozygous FXR deficient (FXR^–/–) mice were maintained under environmentally controlled conditions with free access to standard chow diet and water as described previously. Animal experiments were conducted in the barrier facility of the Laboratory Animal Center, Xiamen University, approved by the Institutional Animal Use and Care Committee of Xiamen University, China, and the methods were carried out in accordance with the approved guidelines. Mice were fed with high fat diet containing 60% fat, 20% protein and 20% carbohydrate (Research Diets, D12492, New Brunswick, USA), and the food intake were measured every second day. […] After 6 h fasting, mice were weighed and sacrificed. Livers were weighed and taken photos, and part of each liver was fixed in 4% paraformaldehyde. Liver histology characterization was analyzed by haematoxylin and eosin (H&E) staining with paraffin-embedded sections by standard procedures. Other tissues were collected and frozen in liquid nitrogen for use, and serums were collected to measure metabolite parameters.
Fresh liver tissues were embedded in optimum cutting temperature compound (OCT) and cryosectioned. The sections were fixed in 4% paraformaldehyde in PBS, and were stained with 0.3% oil red O according to standard procedures.
Mice treated with compounds for 10 days were fasted for 6 h with free access to water. For the glucose tolerance test (GTT), 1 g/kg of glucose was i.p. injected and blood glucose was measured with the Accu-Check Performa (Roche Applied Science, Mannheim, Germany) at 0, 30, 60, 90, 120,150 and 180 min. For the insulin tolerance test (ITT), 1 U/kg of recombinant human insulin (Novolin 30R; Novo Nordisk, Bagsvaerd, Denmark) was i.p. injected, and blood glucose was measured at 0, 30, 60, 120 and 150 min after insulin injection.
Serum glucose was analyzed using glucose oxidase method (Applygen, Beijing, China). Serum cholesterol and triglyceride were analyzed using Cholesterol Assay Kit and Triglyceride Assay Kit (Bioassay Systems, USA), respectively. Liver triglyceride was analyzed using Tissue triglyceride assay kit (Applygen, Beijing, China).

[1] = design: method as in PMID 10956205, PMID 25388536, PMID 19586769; settings: in rat; cited from earlier work

CC(C)c1onc(-c2c(Cl)cccc2Cl)c1COc1ccc(/C=C/c2cccc(C(=O)O)c2)c(Cl)c1 [GW4064]
transcriptional activity of A291W mutated FXR (FXR A291W mutation): abolished the transcriptional activity | transcriptional activity of N283L mutated FXR (FXR N283L mutation): retained the ability to be activated | hepatobiliary toxicity (medaka eleutheroembryo): hepatobiliary injury | body weight and fat effect (mice): weight gain and fat accumulation | hepatic lipid / steatosis by H&E staining of liver sections (KK-Ay mice): slightly reduced the hepatic lipid | lipid accumulation by oil red O staining of liver sections (KK-Ay mice): slightly reduced the lipid accumulation | liver morphology (colour) (KK-Ay mice): a little fresh red | t1/2 [1]: < 1 h
